Here are results for six molecules from paper PMC9694777, “Fractionation and Extraction Optimization of Potentially Valuable Compounds and Their Profiling in Six Varieties of Two Nicotiana Species” (Molecules, 2022).

≈ marks a conversion by molar mass, not a printed value.

The series in a line: physchem. Particulars: for solubility: 22 °C, thermodynamic from solid. An excerpt:
Determination of the small molecule content in a complex plant matrix depends on the understanding of minimum solubility in the chosen extraction solvent. […] Often, tests on mixture are hardly reproducible on pure compounds if this aspect is not routinely considered in the workflow. We performed a general testing of best solvent systems to compare a wide range of small molecules of interest to understand the limitations of general approaches within a complex plant matrix such as Nicotiana.
For each of the 29 reference compounds, 2 mg was weighed into a 15 mL glass tube and dissolved in the minimum amount of the test solvent by gradually adding the solvent with a micropipette until complete dissolution or to a final volume of 10.0 mL. Seven solvents with polarities from nonpolar to polar were chosen for the test: hexane (C6H14), CH2Cl2, CH2Cl2/MeOH (4:1, v/v), EtOH, MeOH, MeOH/H2O (7:3, v/v), and H2O. The consumed solvents and their volumes were recorded for each reference compound.

Where [1] appears, read: organic solvent or mixture, Solubility in C6H14.
Where [2] appears, read: organic solvent or mixture, Solubility in CH2Cl2.
Setting [3] is: organic solvent or mixture, Solubility in EtOH.
Setting [4] is: organic solvent or mixture, Solubility in MeOH.
Setting [5] is: organic solvent or mixture, Solubility in MeOH/H2O (7:3).
The mark [6] stands for this setting: solvent CH2Cl2/MeOH (4:1, v/v), room temperature (21–23 °C).
[7] abbreviates: solvent MeOH/H2O (7:3, v/v), room temperature (21–23 °C).
The mark [8] stands for this setting: solvent water, room temperature (21–23 °C).

`C=C1CC[C@H](O)C/C1=C/C=C1\CCC[C@]2(C)[C@@H]([C@H](C)CCCC(C)C)CC[C@@H]12` [Vitamin D3]: the solubility was 104000 µg/mL (≈ 270 mM) under setting [1]; 100000 µg/mL (≈ 260 mM) under setting [2]; 212000 µg/mL (≈ 551 mM) (organic solvent or mixture, Solubility in CH2Cl2/MeOH (4:1)); 74300 µg/mL (≈ 193 mM) under setting [3]; 113000 µg/mL (≈ 294 mM) under setting [4]; less than 190 µg/mL under setting [5]. This molecule returned a solubility (water, Solubility in H2O) of less than 190 µg/mL.
In the case of `C/C(=C\CNc1ncnc2[nH]cnc12)CO` [Zeatin], the solubility reads like this: under setting [1], less than 190 µg/mL; under setting [2], less than 190 µg/mL; under setting [3], 560 µg/mL (≈ 2.55 mM); under setting [4], 2280 µg/mL (≈ 10.4 mM); under setting [5], 3030 µg/mL (≈ 13.8 mM); (water, Solubility in H2O) less than 190 µg/mL.
Consider `CC1=C(/C=C/C(C)=C/C=C/C(C)=C/C=C/C=C(C)/C=C/C=C(C)/C=C/C2=C(C)C[C@@H](O)CC2(C)C)C(C)(C)C[C@H](O)C1` [Zeaxanthin], for which the solubility is, setting by setting: (organic solvent or mixture, Solubility in C6H14, solvent hexane (C6H14), room temperature (21–23 °C), 2 mg compound, solvent added until dissolution or 10.0 mL) less than 190 µg/mL; (organic solvent or mixture, Solubility in CH2Cl2, solvent dichloromethane (CH2Cl2), room temperature (21–23 °C)) 290 µg/mL (≈ 0.51 mM); (organic solvent or mixture, Solubility in EtOH, solvent ethanol, room temperature (21–23 °C)) less than 190 µg/mL; (organic solvent or mixture, Solubility in MeOH, solvent methanol, room temperature (21–23 °C)) less than 190 µg/mL; (organic solvent or mixture, Solubility in MeOH/H2O (7:3), solvent MeOH/H2O (7:3, v/v), room temperature (21–23 °C)) less than 190 µg/mL; (water, Solubility in H2O, solvent water, room temperature (21–23 °C)) less than 190 µg/mL. In addition, the “Solubility in CH2Cl2/MeOH (4:1)” value reads like this: under setting [6], 490 µg/mL (≈ 0.861 mM); (solvent CH2Cl2/MeOH (4:1, v/v), room temperature (21–23 °C), listed as zeaxanthin) less than 100000 µg/mL.
Consider Megastigmatrienone, for which the “Solubility in CH2Cl2/MeOH (4:1)” value under setting [6] was 212000 µg/mL. Under setting [7], the “Solubility in MeOH/H2O (7:3)” value amounted to 38800 µg/mL. Besides, the “Solubility in CH2Cl2” value (solvent dichloromethane (CH2Cl2), room temperature (21–23 °C)) came to 215000 µg/mL. Moreover, the “Solubility in EtOH” value (solvent ethanol, room temperature (21–23 °C)) was 197000 µg/mL. Besides, the “Solubility in C6H14” value (solvent hexane (C6H14), room temperature (21–23 °C), 2 mg compound, solvent added until dissolution or 10.0 mL) was 1100 µg/mL. Moreover, the “Solubility in MeOH” value (solvent methanol, room temperature (21–23 °C)) turned out to be 228000 µg/mL. For the same molecule, under setting [8], the “Solubility in H2O” value is given as “NS (not soluble, insoluble in the solvent at the tested concentration range (0.19–558 mg/mL))”.
Take Phytol: the “Solubility in MeOH/H2O (7:3)” value under setting [7] came out at 320 µg/mL. Further, under setting [8], the “Solubility in H2O” value is recorded as “NS (not soluble, insoluble in the solvent at the tested concentration range (0.19–558 mg/mL))”.
As to Vitamin E, the “Solubility in C6H14” value amounted to 215000 µg/mL, the “Solubility in CH2Cl2” value came out at 208000 µg/mL, the “Solubility in CH2Cl2/MeOH (4:1)” value was 241000 µg/mL and the “Solubility in EtOH” value was 43000 µg/mL. Besides, the “Solubility in H2O” value was “NS (key: NS: not soluble, insoluble in the solvent at the tested concentration range (0.19–558 mg/mL))”; the “Solubility in MeOH” value was 31200 µg/mL; the “Solubility in MeOH/H2O (7:3)” value amounted to 230 µg/mL.
